US10869931B2, “Polyethylene glycol-modified angiogenesis inhibitor HM-1 and application thereof” (NANJING ANJI BIOLOGICAL TECHNOLOGY CO.,LTD, priority 2016, dated 2020)
Marks after values point to notes of the source that are not given here. Where no end group is shown, it is not given here.

Legend:
Lung cancer tumor cells = assay: MTT proliferation inhibition, lung cancer cells; format: cell-based, human; set-up: concentration or dose not given beside the values; conditions: 48 h
Description: (§1) The activity of mPEG-HM-1 to inhibit the growth of various tumor cells was examined by MTT assay. The tumor cells were cultured to a concentration of 90% or more in a 37° C., 5% CO2 incubator and collected by trypsinization. The cells were resuspended in the culture medium and counted under a microscope to adjust the cell concentration to 2×10^4 cells/mL, the cell suspension was inoculated into a 96-well plate at 100 μL/well and incubated overnight at 37° C. in a 5% CO2 incubator. mPEG-HM-1 was diluted with the culture solution to each predetermined concentration. Docetaxel is diluted to the final concentration with the culture medium. After the cells were fully attached, each dilution was added to a 96-well plate (100 μL/well). The mPEG-HM-1 dilution was added as a drug-administered group, and docetaxel was added as a positive control group, and a culture solution without any drug was used as a negative control group. Incubate for 48 h at 37° C. in a 5% CO2 incubator. 5 mg/mL of MTT was added to a 96-well plate at 20 μL per well, and incubation was continued for 4 hours. The medium was aspirated, dissolved in 150 μL of DMSO per well, and gently mixed by shaking for 10 min. The absorbance was measured at a measurement wavelength of 570 nm and a reference wavelength of 630 nm using a microplate reader, and the rate of growth inhibition (proliferation inhibition, PI) was calculated. The formula is as follows: PI (%)=1−administration group/negative group
(§2) The test was repeated 3 times independently, and the results obtained by the test were expressed as mean±SD, and the test results are shown in Table 15 to Table 18.

[1] = test system: Cervical cancer tumor cells; assay: MTT proliferation inhibition, cervical cancer cells; format: cell-based, human; set-up: concentration or dose not given beside the values; conditions: 48 h
Description: as §1, §2

Melanoma tumor cells = assay: MTT proliferation inhibition, melanoma cells; format: cell-based, human; set-up: concentration or dose not given beside the values; conditions: 48 h
Description: as §1, §2

[2] = test system: Human Umbilical Vein Endothelial Cells (HUVEC); assay: Transwell migration of HUVEC; format: cell-based; conditions: 24 h
Description: 10 mg/mL Matrigel was diluted 1:2 with HUVEC-specific medium, spread on a transwell chamber membrane, and air-dried at room temperature. HUVEC cells cultured in logarithmic growth phase were digested with trypsin digest, collected, washed twice with PBS, and resuspended in blank HUVECs-specific medium. The cells were counted under a microscope, and the cell concentration was adjusted to 1×10^5/mL. The test solutions of each group were prepared and diluted to 100 μL with a blank HUVECs-specific medium. The cells were seeded into a transwell chamber at 100 μL per well, and each set of test solution was added to the chamber. The cell culture was stimulated by adding 0.6 mL of endothelial cell culture medium containing 5% fetal bovine serum and 1% ECGS into a 24-well plate, and cultured at 5% CO2 for 24 hour at 37° c. Discard the culture medium in the well, fix it with 90% alcohol at room temperature for 30 minutes, 0.1% crystal violet for 10 min at room temperature, rinse with water, gently wipe off the unsprayed cells in the upper layer with a cotton swab, observe under microscope and select four fields to take pictures. Calculate migration inhibition (MI) according to the formula: […]
Ntest was the number of cell migration in the test group, and Ncontrol was the number of cell migration in the blank control group.
The test was repeated 3 times independently. The results obtained from the test were calculated as mean±SD, and a statistical T test was performed. *P<0.05 was a significant difference, and **P<0.01 was a very significant difference.

[3] = test system: IL-1β production by mouse peritoneal macrophages; assay: IL-1β production by mouse peritoneal macrophages (ELISA); format: cell-based; conditions: 48 h
Description: (1) IL-1β production: mice were intraperitoneally injected with 1 mL of broth (containing 6%) starch, and three days later, the mouse peritoneal macrophages were aseptically taken, washed twice with 1640 medium, and the cell concentration was adjusted to 2×10^6 cells/mL, inject into a 24-well culture plate, 1 mL per well, incubate for 3 hours in a cell culture incubator, shake once every 30 minutes, and allow the cells to fully adhere. Then, it was washed twice with the culture solution to remove unattached cells. The blank group was added with PBS, the positive group was added with the positive drug dexamethasone (Dex), the model group was not administered, to the experimental group was added low, medium and high three concentrations of mPEG-HM-1, and the culture was continued for 48 hours after the administration, 1000 r/min. Centrifuge for 15 min. The supernatant was taken as a sample for testing activity of IL-1β.
(2) Determination of IL-1β content: using R&D mouse IL-1β enzyme-linked immunosorbent assay kit, according to the kit instructions as follows: respectively, the tested samples and different concentrations of standard products, sealed with sealing tape the reaction well and incubated at 37° C. for 90 min; the plate was washed four times; the biotinylated antibody working solution (100 μL/well) was added, and the reaction well was sealed with sealing paper, incubated at 37° c. for 60 min; the plate was washed four times; Add the enzyme conjugate working solution (100 μL/well), seal the reaction well with sealing paper, incubate at 37° C. for 30 min; wash the plate four times; add color reagent (100 μL/well), incubate at 37° C. 10-20 min, add stop solution (100 μL/well), mix and measure OD450 value.

[4] = in vivo

Substance	rate of growth inhibition (Lung cancer tumor cells) [%]	rate of growth inhibition [1] [%]	rate of growth inhibition (Melanoma tumor cells) [%]	cell migration number (Mean ± SD) ([2]; 70 μg/mL)	inhibition rate of HUVEC migration ([2]; 70 μg/mL)	cell migration number (Mean ± SD) ([2]; 80 μg/mL)	cell migration number (Mean ± SD) ([2]; 90 μg/mL)	inhibition rate of HUVEC migration ([2]; 90 μg/mL)	cell migration number (Mean ± SD) ([2]; 100 μg/mL)	inhibition rate of HUVEC migration ([2]; 100 μg/mL)	IL-1β ([3]; 20 μg/mL) [pg/mL]	Inhibition Rate of IL-1β production ([3]; 20 μg/mL) [%]	IL-1β ([3]; 40 μg/mL) [pg/mL]	Inhibition Rate of IL-1β production ([3]; 40 μg/mL) [%]	IL-1β ([3]; 80 μg/mL) [pg/mL]	Inhibition Rate of IL-1β production ([3]; 80 μg/mL) [%]	AUC0-∞ [4] [mg/L/h]	CL [4] [L/h/kg]	MRT0-∞ [4] [h]	T1/2β (half-life) [4] [h]	further results
mPEG-ALD20k-Arg-Gly-Ala-Asp-Arg-Ala-Gly-Gly-Gly-Gly-Arg-Gly-Asp ({mPEG‑ALD 20 kDa}-RGADRAGGGGRGD) [mPEG-ALD20k-HM-1]	66.38 ± 17.16	75.66 ± 20.10	80.71 ± 23.46	611.92 ± 52.08	40.53%*	507.07 ± 40.74	403.15 ± 48.80	60.82%	564.59 ± 50.42	45.13%*	729.13 ± 13.12	20.48	628.18 ± 15.34	31.49	438.93 ± 12.56	52.13	5899.46 ± 6.68	0.0129 ± 0.0106	18.65 ± 2.57	22.65 ± 0.21	inhibition rate of HUVEC migration ([2]; 80 μg/mL): 50.72%
mPEG-ALD40k-Arg-Gly-Ala-Asp-Arg-Ala-Gly-Gly-Gly-Gly-Arg-Gly-Asp ({mPEG‑ALD 40 kDa}-RGADRAGGGGRGD) [mPEG-ALD40k-HM-1]	55.44 ± 16.13	70.62 ± 19.14	75.18 ± 21.75				534.34 ± 56.62	48.07%*	510.47 ± 60.56	50.39%			742.06 ± 16.59	19.07	664.40 ± 18.43	27.54	5276.69 ± 9.84	0.0065 ± 0.0058	16.52 ± 3.06	43.31 ± 0.22	cell migration number (Mean ± SD) ([2]; 110 μg/mL): 471.88 ± 46.27; inhibition rate of HUVEC migration ([2]; 110 μg/mL): 54.14%; cell migration number (Mean ± SD) ([2]; 120 μg/mL): 565.31 ± 50.34; inhibition rate of HUVEC migration ([2]; 120 μg/mL): 45.06%*; IL-1β ([3]; 160 μg/mL): 495.96 ± 10.95 pg/mL; Inhibition Rate of IL-1β production ([3]; 160 μg/mL): 45.91%
mPEG-SC5k-Arg-Gly-Ala-Asp-Arg-Ala-Gly-Gly-Gly-Gly-Arg-Gly-Asp ({mPEG‑SC 5 kDa}-RGADRAGGGGRGD) [mPEG-SC5k-HM-1]	45.33 ± 12.67	51.11 ± 16.20	61.27 ± 18.13								561.18 ± 13.21	40.11					4391.72 ± 12.85	0.0598 ± 0.0108	7.68 ± 2.97	8.31 ± 0.12	cell migration number (Mean ± SD) ([2]; 30 μg/mL): 617.03 ± 60.97; inhibition rate of HUVEC migration ([2]; 30 μg/mL): 41.83%*; cell migration number (Mean ± SD) ([2]; 40 μg/mL): 517.43 ± 50.39; inhibition rate of HUVEC migration ([2]; 40 μg/mL): 51.22%; cell migration number (Mean ± SD) ([2]; 50 μg/mL): 469.59 ± 48.95; inhibition rate of HUVEC migration ([2]; 50 μg/mL): 55.73%; cell migration number (Mean ± SD) ([2]; 60 μg/mL): 601.65 ± 60.73; inhibition rate of HUVEC migration ([2]; 60 μg/mL): 43.28%*; IL-1β ([3]; 5 μg/mL): 762.83 ± 15.46 pg/mL; Inhibition Rate of IL-1β production ([3]; 5 μg/mL): 18.59%; IL-1β ([3]; 10 μg/mL): 678.12 ± 12.09 pg/mL; Inhibition Rate of IL-1β production ([3]; 10 μg/mL): 27.63%
mPEG-SC10k-Arg-Gly-Ala-Asp-Arg-Ala-Gly-Gly-Gly-Gly-Arg-Gly-Asp ({mPEG‑SC 10 kDa}-RGADRAGGGGRGD) [mPEG-SC10k-HM-1]	50.29 ± 13.18	57.17 ± 18.40	70.62 ± 20.17	439.89 ± 48.08	58.53%	580.33 ± 58.20					666.50 ± 11.93	28.87	553.03 ± 14.12	40.98			4671.86 ± 10.76	0.0273 ± 0.0056	12.67 ± 5.84	15.18 ± 0.11	cell migration number (Mean ± SD) ([2]; 50 μg/mL): 612.15 ± 50.34; inhibition rate of HUVEC migration ([2]; 50 μg/mL): 42.49%*; cell migration number (Mean ± SD) ([2]; 60 μg/mL): 527.08 ± 48.30; inhibition rate of HUVEC migration ([2]; 60 μg/mL): 50.31%; inhibition rate of HUVEC migration ([2]; 80 μg/mL): 45.29%*; IL-1β ([3]; 10 μg/mL): 758.05 ± 15.18 pg/mL; Inhibition Rate of IL-1β production ([3]; 10 μg/mL): 19.10%
mPEG-SC20k-Arg-Gly-Ala-Asp-Arg-Ala-Gly-Gly-Gly-Gly-Arg-Gly-Asp ({mPEG‑SC 20 kDa}-RGADRAGGGGRGD) [mPEG-SC20k-HM-1]	53.87 ± 15.66	62.93 ± 20.09	72.14 ± 20.69	596.77 ± 50.58	43.74%*	499.29 ± 50.26	415.07 ± 46.74	60.87%	559.75 ± 52.94	47.23%*	761.42 ± 16.96	18.74	653.20 ± 18.59	30.29	512.27 ± 10.50	45.33	4310.23 ± 12.98	0.0135 ± 0.0093	17.64 ± 12.67	21.46 ± 0.24	inhibition rate of HUVEC migration ([2]; 80 μg/mL): 52.93%
mPEG-SC40k-Arg-Gly-Ala-Asp-Arg-Ala-Gly-Gly-Gly-Gly-Arg-Gly-Asp ({mPEG‑SC 40 kDa}-RGADRAGGGGRGD) [mPEG-SC40k-HM-1]	51.32 ± 16.29	61.52 ± 15.11	68.73 ± 21.25				632.63 ± 58.69	40.36%*	501.84 ± 62.84	52.69%			774.07 ± 15.32	17.39	670.72 ± 16.71	28.42	4365.64 ± 11.06	0.0068 ± 0.0047	16.36 ± 10.28	42.19 ± 0.32	cell migration number (Mean ± SD) ([2]; 110 μg/mL): 464.50 ± 48.47; inhibition rate of HUVEC migration ([2]; 110 μg/mL): 56.21%; cell migration number (Mean ± SD) ([2]; 120 μg/mL): 542.89 ± 49.29; inhibition rate of HUVEC migration ([2]; 120 μg/mL): 48.82%*; IL-1β ([3]; 160 μg/mL): 553.22 ± 10.82 pg/mL; Inhibition Rate of IL-1β production ([3]; 160 μg/mL): 40.96%
